Experimental data from publication PMC2896318 (Biochemistry, 2009).
Where two headings read alike, the source gives them in different places.

What was measured:
[1] = molecular target: Escherichia coli W3310 TEM-2 β-lactamase (Escherichia coli, UniProt P62593, Q37K); assay: Inhibition and turnover kinetics with TEM-2 β-lactamase; type: biochemical; settings: for TEM k2 × 10^3 (deacylation rate constant): values are k2 × 10^3, pH 7.5, 25 °C
[2] = molecular target: T1, Enterobacter cloacae P99 β-lactamase (Enterobacter cloacae, UniProt P05364); settings: previously determined ratio; cited from earlier work
T1 sequence (P05364 21-381): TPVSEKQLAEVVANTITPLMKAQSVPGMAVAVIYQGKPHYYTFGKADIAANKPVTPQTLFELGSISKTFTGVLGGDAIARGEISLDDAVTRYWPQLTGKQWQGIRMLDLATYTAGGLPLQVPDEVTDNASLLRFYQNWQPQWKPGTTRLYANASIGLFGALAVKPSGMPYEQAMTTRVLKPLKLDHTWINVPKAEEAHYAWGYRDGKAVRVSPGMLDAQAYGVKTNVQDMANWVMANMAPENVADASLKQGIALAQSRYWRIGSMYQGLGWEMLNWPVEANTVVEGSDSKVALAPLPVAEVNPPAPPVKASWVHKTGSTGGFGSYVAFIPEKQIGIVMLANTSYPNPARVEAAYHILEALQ

[3] = molecular target: T1, Enterobacter cloacae P99 β-lactamase; settings: for Ki: read-out: P99 K1
[4] = Spontaneous hydrolysis of diaroyl phosphates in buffer; type: physicochemical; settings: values are ko × 10^6; 25 mM MOPS buffer, pH 7.5, 25 °C
OXA-1 β-lactamase = OXA-1 β-lactamase (Escherichia coli, UniProt P13661); assay: Inhibition of class D β-lactamase OXA-1; type: biochemical
Sequence of OXA-1 β-lactamase (P13661 26-276): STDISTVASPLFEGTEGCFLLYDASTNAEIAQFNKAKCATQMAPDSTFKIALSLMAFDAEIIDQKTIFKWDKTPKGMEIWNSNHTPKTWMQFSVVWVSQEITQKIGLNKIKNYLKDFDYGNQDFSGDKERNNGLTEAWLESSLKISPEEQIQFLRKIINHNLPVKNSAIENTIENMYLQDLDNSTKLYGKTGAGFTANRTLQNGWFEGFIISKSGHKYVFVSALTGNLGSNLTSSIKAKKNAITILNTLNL

[5] = molecular target: T1, Enterobacter cloacae P99 β-lactamase; assay: biochemical
[6] = high inhibitor concentrations (>100 μM)
[7] = footnote b: calculated from ki = k2/Ki

## O=C(OP(=O)(O)OC(=O)c1ccccc1)c1ccccc1 [compound 5, dibenzoyl phosphate]
[1]; [6]
  k3 (rearrangement of EI to more inert EI′, Scheme 5): (3.3 ± 0.7) × 10^−4 s^−1
  k4 (breakdown of EI′ to free enzyme, Scheme 5): 0.00015 s⁻¹
[1]; pH 7.5, 20 mM MOPS, 25 °C, from progress curve fits
  TEM ki (acylation rate constant): 0.5 ± 0.1 s⁻¹ mM⁻¹
[1]; read-out: TEM Ki, footnote a: calculated from Ki = k2/ki
  Ki: 76 µM
[1]
  TEM k2 × 10^3 (deacylation rate constant): 38 ± 3 s^−1
[2]
  k3/k2 (methanol vs water partitioning of acyl-enzyme): 23.6
[3]; pH 7.5
  P99 k2 × 10^3 (deacylation rate constant): 9.3 ± 0.2 s^−1
  P99 ki (acylation rate constant): 7 ± 1 s⁻¹ mM⁻¹
[3]
  Ki: 1330 nM
[4]
  ko × 10^6 (spontaneous hydrolysis rate constant): 0.78 s^−1

## O=C(OP(=O)([O-])OC(=O)c1cc2ccccc2s1)c1cc2ccccc2s1.[Na+] [compound 11, Sodium bis[benzo(b)thiophenecarbonyl] phosphate]
[1]; [7]
  TEM ki (acylation rate constant): 53 ^b s^−1mM^−1
[1]
  TEM k2 × 10^3 (deacylation rate constant): 79 ± 2 s^−1
[3]
  P99 ki (acylation rate constant): 69600 ^b s^−1mM^−1
  Ki: 3 nM
[3]; pH 7.5
  P99 k2 × 10^3 (deacylation rate constant): 211 ± 6 s^−1
[4]
  ko × 10^6 (spontaneous hydrolysis rate constant): 54.1 s^−1
OXA-1 β-lactamase; read-out: Ki for OXA-1, class D β-lactamase
  Ki: 0.06 µM

## O=C(OP(=O)([O-])OC(=O)c1cc2ccccc2o1)c1cc2ccccc2o1.[Na+] [compound 12, Sodium bis[2-benzo(b)furancarbonyl] phosphate]
[1]; [7]
  TEM ki (acylation rate constant): 1.8 ^b s^−1mM^−1
[1]
  TEM k2 × 10^3 (deacylation rate constant): 74 ± 1 s^−1
[3]; values are k2 × 10^3, pH 7.5, 25 °C
  P99 k2 × 10^3 (deacylation rate constant): 354 ± 26 s^−1
[4]
  ko × 10^6 (spontaneous hydrolysis rate constant): 285 s^−1
OXA-1 β-lactamase
  Ki: 14.2 µM
[5]
  Ki: 1300 ± 300 nM
